For the first experiment, the target named is T1, Human immunodeficiency virus type 1 protease (Human immunodeficiency virus 1, UniProt Q72874). The experiment is described as follows: Inhibitory activity against HIV protease.
`NC(=O)CCCC1(c2ccccc2)CC(=O)C(SCCc2ccccc2)=C(O)O1` (stereo not drawn) returned an IC50 of 1300 nM.
Same read-out and setting: the value for `CC(C)c1ccc(C(C)C)c(SC2=C(O)OC(CCc3ccccc3)(c3ccccc3)CC2=O)c1` (stereo not drawn) was 14 nM.
The compound `CC(C)CC1(c2ccccc2)CC(=O)C(SCCc2ccccc2)=C(O)O1` (stereo not drawn) gave an IC50 of 1200 nM.
With `CCC(C)c1ccccc1SC1=C(O)OC(CCc2ccccc2)(c2ccccc2)CC1=O` (stereo not drawn), the IC50 was 10 nM.
The same measure, in the same setting: the figure for `CC(C)CC1(c2ccccc2)CC(=O)C(SCc2ccccc2)=C(O)O1` (stereo not drawn) is 440 nM.
Compound `O=C1CC(CCc2ccccc2)(c2ccccc2)OC(O)=C1Sc1ccccc1C1CCCCC1` (stereo not drawn) showed an IC50 of 32 nM.
Compound `Cc1ccc(C(C)C)c(SC2=C(O)OC(c3ccccc3)(c3ccccc3)CC2=O)c1` returned an IC50 of 38 nM.
`CC(C)c1ccc(C(C)(C)C)c(SC2=C(O)OC(CCc3ccccc3)(c3ccccc3)CC2=O)c1` (stereo not drawn) yielded an IC50 of 47 nM.
`CCCCC1(c2ccccc2)CC(=O)C(SCCc2ccccc2)=C(O)O1` (stereo not drawn) gave an IC50 of 400 nM. This IC50 lies about 8.5-fold higher than the previous one.
The compound `O=C1CC2(CCCc3ccccc32)OC(O)=C1SCCc1ccccc1` (stereo not drawn) came in with an IC50 of 1300 nM.
Still for that read-out and setting: the figure for `CC(C)CCCC1(c2ccccc2)CC(=O)C(SCc2ccccc2)=C(O)O1` (stereo not drawn) is 183 nM.
On the same count and under the same terms, the figure for `CN(CC1(c2ccccc2)CC(=O)C(SCCc2ccccc2)=C(O)O1)c1ccccc1` (stereo not drawn) is 2280 nM; for `O=C1CC(CC2CCCC2)(c2ccccc2)OC(O)=C1SCc1ccccc1` (stereo not drawn) it is 88 nM; for `CC(C)CCC1(c2ccccc2)CC(=O)C(SCCc2ccccc2)=C(O)O1` (stereo not drawn) it is 96 nM.
Take `CCCCC1(c2ccccc2)CC(=O)C(SCc2ccccc2)=C(O)O1` (stereo not drawn): the IC50 was 270 nM. This IC50 is about 2.8-fold higher than that of the compound before.
As for `CC(C)c1ccc(C(C)C)c(SC2=C(O)OC(c3ccccc3)(c3ccccc3)CC2=O)c1`, the IC50 is 119 nM.
`O=C1CC(COc2ccccc2)(c2ccccc2)OC(O)=C1SCc1ccccc1` (stereo not drawn) displayed an IC50 of 172 nM.
`O=C1CC(c2ccccc2)(c2ccccc2)OC(O)=C1SCCc1ccccc1` displayed a half-maximal inhibitory concentration (IC50) of 152 nM.
`CC(C)CCC1(c2ccccc2)CC(=O)C(SCc2ccccc2)=C(O)O1` (stereo not drawn) yielded an IC50 of 98 nM.
The compound `CC(C)c1ccccc1SC1=C(O)OC(c2ccccc2)(c2ccccc2)CC1=O` had an IC50 of 23 nM.
For `O=C1CC(c2ccccc2)OC(O)=C1SCc1ccccc1` (stereo not drawn), 8900 nM corresponded to half-maximal inhibition (IC50).
`O=C(O)CCCCC1(c2ccccc2)CC(=O)C(SCCc2ccccc2)=C(O)O1` (stereo not drawn) had an IC50 of 5 nM.
With `CCC(C)c1ccccc1SC1=C(O)OC(c2ccccc2)(c2ccccc2)CC1=O` (stereo not drawn), half-maximal inhibition (IC50) was put at 17 nM.
Same read-out and setting: the value for `CCCCCCC1(c2ccccc2)CC(=O)C(SCc2ccccc2)=C(O)O1` (stereo not drawn) was 180 nM.
Same read-out and setting: the value for `NC(=O)CCCCC1(c2ccccc2)CC(=O)C(SCCc2ccccc2)=C(O)O1` (stereo not drawn) was 338 nM.
Still for that read-out and setting: the figure for `CCCC1(c2ccccc2)CC(=O)C(SCCc2ccccc2)=C(O)O1` (stereo not drawn) is 5100 nM.
On to `O=C1CC2(CCc3ccccc32)OC(O)=C1SCc1ccccc1` (stereo not drawn), for which the IC50 turned out to be 11800 nM. This IC50 is about 2.3-fold higher than that of the compound before.
Turning to `O=C1CC(c2ccccc2)(c2ccccc2)OC(O)=C1SCc1ccccc1`, the midpoint of inhibition, the IC50, lay at 262 nM.
As for `O=C1CC(CC2CCCCC2)(c2ccccc2)OC(O)=C1SCc1ccccc1` (stereo not drawn), the IC50 turned out to be 137 nM.
Same read-out and setting: the figure for `O=C(O)CCCC1(c2ccccc2)CC(=O)C(SCCc2ccccc2)=C(O)O1` (stereo not drawn) is 270 nM.
On the same count and under the same terms, the figure for `CCCCCCC1(c2ccccc2)CC(=O)C(SCCc2ccccc2)=C(O)O1` (stereo not drawn) is 112 nM; for `Cc1ccc(C(C)C)c(SC2=C(O)O[C@@](CCc3ccccc3)(c3ccccc3)CC2=O)c1` it is 130 nM.
`Cc1ccc(C(C)C)c(SC2=C(O)O[C@](CCc3ccccc3)(c3ccccc3)CC2=O)c1` registered an IC50 of 6 nM.
Turning to `O=c1cc(-c2ccccc2)oc(O)c1Sc1ccccc1`, the midpoint of inhibition, the IC50, lay at 3100 nM.
The same measure, in the same setting: the figure for `Cc1ccc(C(C)(C)C)c(SC2=C(O)OC(c3ccccc3)(c3ccccc3)CC2=O)c1` is 12 nM; for `O=C1CC(c2ccccc2)OC(O)=C1SCCc1ccccc1` (stereo not drawn) it is 2100 nM; for `O=C1CC(CC2CCCC2)(c2ccccc2)OC(O)=C1SCCc1ccccc1` (stereo not drawn) it is 510 nM.
On to `O=C1CC2(CCCc3ccccc32)OC(O)=C1SCc1ccccc1` (stereo not drawn), for which 2300 nM corresponded to half-maximal inhibition (IC50).
In turn, `CCCC1(c2ccccc2)CC(=O)C(SCc2ccccc2)=C(O)O1` (stereo not drawn) displayed an IC50 of 290 nM.
Compound `Cc1ccccc1SC1=C(O)OC(c2ccccc2)(c2ccccc2)CC1=O` displayed an IC50 of 388 nM.
As to `O=C1CC(c2ccccc2)(c2ccccc2)OC(O)=C1Sc1ccccc1C1CCCCC1`, the IC50 was determined as 127 nM.
Still for that read-out and setting: the value for `O=C1CC(CCc2ccccc2)(c2ccccc2)OC(O)=C1Sc1ccccc1` (stereo not drawn) was 130 nM; that for `Cc1ccccc1SC1=C(O)OC(CCc2ccccc2)(c2ccccc2)CC1=O` (stereo not drawn) was 73 nM; that for `O=C(O)CCC1(c2ccccc2)CC(=O)C(SCCc2ccccc2)=C(O)O1` (stereo not drawn) was 1200 nM.
The same measure, in the same setting: the figure for `O=C1CC(CCCCO)(c2ccccc2)OC(O)=C1SCc1ccccc1` (stereo not drawn) is 1260 nM.
On to `O=C1CC(CCc2ccccc2)(c2ccccc2)OC(O)=C1SCCc1ccccc1` (stereo not drawn), for which 51 nM corresponded to half-maximal inhibition (IC50).
`CCCCCC1(c2ccccc2)CC(=O)C(SCCc2ccccc2)=C(O)O1` (stereo not drawn) came in with an IC50 of 84 nM.
`O=C1CC(c2ccccc2)(c2ccccc2)OC(O)=C1Sc1ccccc1` showed a 50% inhibitory concentration (IC50) of 110 nM.
Consider `O=C1CC(c2ccccc2)(c2ccccc2)OC(O)=C1Sc1ccccc1C1CCCC1`, for which half-maximal inhibition (IC50) was put at 14 nM.
Take `CC(C)(C)c1ccccc1SC1=C(O)OC(c2ccccc2)(c2ccccc2)CC1=O`: the IC50 stood at 49 nM.
Turning to `CC(C)CCCC1(c2ccccc2)CC(=O)C(SCCc2ccccc2)=C(O)O1` (stereo not drawn), the IC50 was found to be 155 nM.
Compound `O=C1CC(c2ccccc2)(c2ccncc2)OC(O)=C1SCCc1ccccc1` (stereo not drawn) had an IC50 of 790 nM.
The same measure, in the same setting: the figure for `O=C1CC(CCc2ccccc2)(c2ccccc2)OC(O)=C1SCc1ccccc1` (stereo not drawn) is 60 nM; for `CC(C)CCC1(c2ccccc2)CC(=O)C(Sc2ccccc2)=C(O)O1` (stereo not drawn) it is 1400 nM; for `CCCCCC1(c2ccccc2)CC(=O)C(SCc2ccccc2)=C(O)O1` (stereo in doubt; 4b) it is 124 nM.
The compound `CCCCCC1(c2ccccc2)CC(=O)C(SCc2ccccc2)=C(O)O1` (stereo in doubt; 15b) yielded an IC50 of 327 nM.

The target of another experiment is T1, Human immunodeficiency virus type 1 protease. The experiment is described as follows: Inhibitory activity against HIV protease at pH 4.7.
Compound `Cc1ccc(C(C)C)c(SC2=C(O)OC(CCc3ccccc3)(c3ccccc3)CC2=O)c1` (stereo not drawn) registered an IC50 of 7 nM.
In the case of `CC(C)(C)c1ccccc1SC1=C(O)OC(CCc2ccccc2)(c2ccccc2)CC1=O` (stereo not drawn), the midpoint of inhibition, the IC50, lay at 3 nM.
On to `CC(C)c1ccccc1SC1=C(O)OC(CCc2ccccc2)(c2ccccc2)CC1=O` (stereo not drawn), for which the IC50 is 14 nM.
Compound `Cc1ccc(C(C)C)c(Sc2c(O)cc(-c3ccccc3)oc2=O)c1` yielded an IC50 of 17 nM. The IC50 values of the last two compounds are within 1.5-fold of each other.
On to `CC(C)(C)c1ccccc1Sc1c(O)cc(-c2ccccc2)oc1=O`, for which the IC50 came to 17 nM.
The compound `Cc1ccc(C(C)(C)C)c(Sc2c(O)cc(-c3ccccc3)oc2=O)c1` had an IC50 of 28 nM.
With `Cc1ccc(C(C)(C)C)c(SC2=C(O)OC(CCc3ccccc3)(c3ccccc3)CC2=O)c1` (stereo not drawn), the IC50 was 10 nM.

For a further experiment the target is unchanged. The experiment is described as follows: Inhibitory activity against HIV protease at pH 6.2.
Regarding `Cc1ccc(C(C)C)c(SC2=C(O)OC(CCc3ccccc3)(c3ccccc3)CC2=O)c1` (stereo not drawn), inhibition was half-maximal at 79 nM (IC50).
As to `CC(C)(C)c1ccccc1SC1=C(O)OC(CCc2ccccc2)(c2ccccc2)CC1=O` (stereo not drawn), the IC50 came out at 104 nM.
The compound `CC(C)c1ccccc1SC1=C(O)OC(CCc2ccccc2)(c2ccccc2)CC1=O` (stereo not drawn) had an IC50 of 97 nM.
The compound `Cc1ccc(C(C)(C)C)c(Sc2c(O)cc(-c3ccccc3)oc2=O)c1` returned an IC50 of 282 nM.
For `Cc1ccc(C(C)(C)C)c(SC2=C(O)OC(CCc3ccccc3)(c3ccccc3)CC2=O)c1` (stereo not drawn), the IC50 was 35 nM.

(Values after ChEMBL document CHEMBL1130235, “4-hydroxy-5,6-dihydropyrones. 2. Potent non-peptide inhibitors of HIV protease” (J Med Chem, 1997).)
